The results in this text go back to PMC4062389, “LASSBio-1135: A Dual TRPV1 Antagonist and Anti-TNF-Alpha Compound Orally Effective in Models of Inflammatory and Neuropathic Pain” (PLoS ONE, 2014).

For the assay, the target named is TRPV1 (Rattus norvegicus, UniProt O35433). Description: two-electrode voltage clamp in Xenopus oocytes injected with rat TRPV1 cRNA; inhibition of […] capsaicin current. Format: cell-based. Background: In two-electrode clamp one electrode senses voltage and the other passes current.
TRPV1, sequence (O35433 whole entry): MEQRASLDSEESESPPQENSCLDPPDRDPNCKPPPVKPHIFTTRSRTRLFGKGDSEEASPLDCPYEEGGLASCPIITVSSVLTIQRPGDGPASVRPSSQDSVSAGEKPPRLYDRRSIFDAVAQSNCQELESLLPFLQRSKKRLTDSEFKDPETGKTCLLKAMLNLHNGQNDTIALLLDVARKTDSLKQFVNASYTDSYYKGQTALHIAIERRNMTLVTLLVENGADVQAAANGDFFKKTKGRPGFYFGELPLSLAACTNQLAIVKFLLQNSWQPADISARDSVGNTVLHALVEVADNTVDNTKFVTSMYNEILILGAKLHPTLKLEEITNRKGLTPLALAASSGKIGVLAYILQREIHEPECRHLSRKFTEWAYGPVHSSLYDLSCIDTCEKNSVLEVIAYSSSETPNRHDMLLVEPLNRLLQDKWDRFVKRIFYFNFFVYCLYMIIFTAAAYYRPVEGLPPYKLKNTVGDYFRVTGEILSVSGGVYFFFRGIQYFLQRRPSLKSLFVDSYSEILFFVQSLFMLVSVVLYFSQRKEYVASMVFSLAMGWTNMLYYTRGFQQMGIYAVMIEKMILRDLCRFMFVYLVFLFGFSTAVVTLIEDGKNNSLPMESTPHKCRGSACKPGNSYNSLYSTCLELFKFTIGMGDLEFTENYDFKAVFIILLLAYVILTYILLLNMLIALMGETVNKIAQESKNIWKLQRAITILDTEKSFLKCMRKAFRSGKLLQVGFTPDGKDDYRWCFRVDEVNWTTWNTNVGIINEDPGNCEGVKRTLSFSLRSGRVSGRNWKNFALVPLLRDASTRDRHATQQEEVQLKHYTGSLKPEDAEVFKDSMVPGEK

In turn, LASSBio-1135 showed an IC50 of 0.58 µM. That is a sub-micromolar value.

By IC50 is commonly meant the concentration at which inhibition is half-maximal. A high value points to weaker potency in that assay.
